Laboratory results: ChEMBL document CHEMBL1201862, “PubChem BioAssay data set” (2004)
The source made the active and inactive calls.

How the values were obtained:
[1] = molecular target: T1, Caspase-3 (Homo sapiens, UniProt P42574); assay type: functional;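 further: Dose-response selectivity test against caspase-3 for candidate inhibitors of sentrin-specific proteases (SENPs)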
T1 sequence (P42574 whole entry): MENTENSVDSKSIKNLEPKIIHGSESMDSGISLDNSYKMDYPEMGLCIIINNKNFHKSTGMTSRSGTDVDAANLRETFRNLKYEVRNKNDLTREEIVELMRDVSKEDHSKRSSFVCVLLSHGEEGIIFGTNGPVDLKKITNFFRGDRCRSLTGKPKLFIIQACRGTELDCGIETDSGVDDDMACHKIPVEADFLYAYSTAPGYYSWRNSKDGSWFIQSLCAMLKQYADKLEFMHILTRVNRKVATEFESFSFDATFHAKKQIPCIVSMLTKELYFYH

[2] = molecular target: T2, Sentrin-specific protease 8 (Homo sapiens, UniProt Q96LD8); assay type: functional;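 further: luminescence read-out of SENP8 inhibition, dose-response confirmation following an ultra-high-throughput screen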
T2 sequence (Q96LD8 whole entry): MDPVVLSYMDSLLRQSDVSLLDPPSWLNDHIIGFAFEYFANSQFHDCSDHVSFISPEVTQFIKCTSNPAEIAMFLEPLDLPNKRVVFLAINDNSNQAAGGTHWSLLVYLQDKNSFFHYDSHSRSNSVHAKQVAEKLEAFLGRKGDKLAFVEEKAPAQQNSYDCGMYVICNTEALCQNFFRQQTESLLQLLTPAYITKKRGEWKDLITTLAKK

[3] = molecular target: T3, Protein skinhead-1 (Caenorhabditis elegans, UniProt P34707); assay type: functional
T3 sequence (P34707 whole entry): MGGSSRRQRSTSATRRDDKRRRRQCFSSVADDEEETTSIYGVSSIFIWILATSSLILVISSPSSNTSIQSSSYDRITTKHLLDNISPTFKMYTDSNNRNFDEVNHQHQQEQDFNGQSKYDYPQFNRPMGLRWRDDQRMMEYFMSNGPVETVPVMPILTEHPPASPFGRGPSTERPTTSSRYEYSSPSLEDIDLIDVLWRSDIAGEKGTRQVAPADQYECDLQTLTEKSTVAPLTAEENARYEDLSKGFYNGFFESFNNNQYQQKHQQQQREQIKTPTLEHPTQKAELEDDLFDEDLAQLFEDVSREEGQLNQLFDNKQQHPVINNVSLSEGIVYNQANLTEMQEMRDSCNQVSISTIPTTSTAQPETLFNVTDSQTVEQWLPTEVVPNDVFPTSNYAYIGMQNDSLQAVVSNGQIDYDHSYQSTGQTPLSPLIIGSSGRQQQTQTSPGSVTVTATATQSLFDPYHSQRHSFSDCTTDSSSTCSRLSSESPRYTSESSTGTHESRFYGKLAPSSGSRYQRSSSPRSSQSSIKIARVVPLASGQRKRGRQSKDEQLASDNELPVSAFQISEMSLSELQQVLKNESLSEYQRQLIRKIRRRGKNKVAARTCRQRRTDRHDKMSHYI

[4] = molecular target: T4, Sentrin-specific protease 7 (Homo sapiens, UniProt Q9BQF6); assay type: functional;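 further: Luminescence-based dose-response confirmation of ultra-high-throughput screening hits, measuring inhibition of SENP7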
T4 sequence (Q9BQF6 whole entry): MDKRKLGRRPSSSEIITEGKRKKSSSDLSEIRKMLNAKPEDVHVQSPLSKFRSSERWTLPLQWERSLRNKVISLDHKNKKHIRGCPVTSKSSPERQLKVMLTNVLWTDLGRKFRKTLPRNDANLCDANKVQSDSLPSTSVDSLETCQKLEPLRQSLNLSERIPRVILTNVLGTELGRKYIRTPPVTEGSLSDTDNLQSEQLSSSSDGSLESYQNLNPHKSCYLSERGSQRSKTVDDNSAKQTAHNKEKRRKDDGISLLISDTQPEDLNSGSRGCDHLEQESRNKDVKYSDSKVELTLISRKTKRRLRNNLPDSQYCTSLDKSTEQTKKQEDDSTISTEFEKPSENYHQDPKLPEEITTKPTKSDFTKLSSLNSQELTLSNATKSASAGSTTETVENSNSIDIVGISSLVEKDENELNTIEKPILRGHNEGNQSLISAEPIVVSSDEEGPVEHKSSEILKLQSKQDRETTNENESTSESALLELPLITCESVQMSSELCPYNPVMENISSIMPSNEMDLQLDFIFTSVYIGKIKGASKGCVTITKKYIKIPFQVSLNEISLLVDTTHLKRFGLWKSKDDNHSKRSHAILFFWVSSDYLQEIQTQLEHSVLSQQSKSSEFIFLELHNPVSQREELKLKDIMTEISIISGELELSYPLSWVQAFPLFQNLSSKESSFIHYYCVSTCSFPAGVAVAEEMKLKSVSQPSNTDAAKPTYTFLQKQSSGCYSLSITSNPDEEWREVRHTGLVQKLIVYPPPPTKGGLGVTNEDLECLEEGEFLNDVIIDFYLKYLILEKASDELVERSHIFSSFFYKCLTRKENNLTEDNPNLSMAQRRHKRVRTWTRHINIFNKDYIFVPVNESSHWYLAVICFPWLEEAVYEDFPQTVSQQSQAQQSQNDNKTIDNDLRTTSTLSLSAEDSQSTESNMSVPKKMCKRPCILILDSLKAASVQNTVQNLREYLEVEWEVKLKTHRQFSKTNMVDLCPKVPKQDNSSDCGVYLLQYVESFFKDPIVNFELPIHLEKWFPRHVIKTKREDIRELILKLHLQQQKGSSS

[5] = molecular target: T5, Sentrin-specific protease 6 (Homo sapiens, UniProt Q9GZR1); assay type: functional;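 further: Luminescence-based dose-response confirmatory assay of SENP6 inhibition, following up an ultra-high-throughput screen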
T5 sequence (Q9GZR1 whole entry): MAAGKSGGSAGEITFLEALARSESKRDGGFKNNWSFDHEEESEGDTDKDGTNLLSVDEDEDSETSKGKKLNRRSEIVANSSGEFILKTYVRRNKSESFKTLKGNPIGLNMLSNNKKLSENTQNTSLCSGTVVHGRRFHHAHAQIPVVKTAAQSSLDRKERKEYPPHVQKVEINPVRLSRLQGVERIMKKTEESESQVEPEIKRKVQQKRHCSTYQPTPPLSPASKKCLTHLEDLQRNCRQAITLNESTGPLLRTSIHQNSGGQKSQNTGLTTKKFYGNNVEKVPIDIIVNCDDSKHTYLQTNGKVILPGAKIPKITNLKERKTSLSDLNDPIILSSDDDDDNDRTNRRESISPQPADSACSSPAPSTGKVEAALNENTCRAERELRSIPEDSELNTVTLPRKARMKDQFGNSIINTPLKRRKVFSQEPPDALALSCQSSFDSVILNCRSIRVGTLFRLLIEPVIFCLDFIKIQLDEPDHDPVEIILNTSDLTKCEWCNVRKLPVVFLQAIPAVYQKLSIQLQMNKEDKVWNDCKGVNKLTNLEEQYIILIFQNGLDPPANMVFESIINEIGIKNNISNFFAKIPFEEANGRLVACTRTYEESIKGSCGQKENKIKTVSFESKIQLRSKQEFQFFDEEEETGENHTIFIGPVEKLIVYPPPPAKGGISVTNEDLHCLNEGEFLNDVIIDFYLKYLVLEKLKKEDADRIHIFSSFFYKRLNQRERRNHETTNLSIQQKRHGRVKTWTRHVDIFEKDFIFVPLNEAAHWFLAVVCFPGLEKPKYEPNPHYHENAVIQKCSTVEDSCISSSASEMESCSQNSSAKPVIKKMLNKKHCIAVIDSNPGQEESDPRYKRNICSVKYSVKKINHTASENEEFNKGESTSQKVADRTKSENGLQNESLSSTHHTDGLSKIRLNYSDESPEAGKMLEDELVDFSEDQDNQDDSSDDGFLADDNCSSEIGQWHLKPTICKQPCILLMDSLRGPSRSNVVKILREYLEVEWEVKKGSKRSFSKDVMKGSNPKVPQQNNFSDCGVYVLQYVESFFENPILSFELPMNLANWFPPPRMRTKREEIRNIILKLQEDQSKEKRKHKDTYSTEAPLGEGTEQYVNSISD

[6] = molecular target: Cytochrome P450 2C9 (Homo sapiens, UniProt P11712)
[7] = molecular target: T6, Endoribonuclease toxin MazF (Escherichia coli K-12, UniProt P0AE70); test: MazF toxin RNase activators, dose response, biochemical, fluorescence, single-stranded RNA substrate, uHTS hits (AID 588481); assay type: functional
T6 sequence (P0AE70 whole entry): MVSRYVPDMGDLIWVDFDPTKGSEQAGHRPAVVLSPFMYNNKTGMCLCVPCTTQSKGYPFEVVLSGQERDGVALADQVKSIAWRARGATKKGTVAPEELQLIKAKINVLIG

[8] = molecular target: T6, Endoribonuclease toxin MazF; test: fluorescent RNA oligo signal without MazF, dose response, counter-screen for MazEF activator project, biochemical, fluorescence, single-stranded RNase substrate (AID 588502); assay type: functional
[9] = inhibitors of firefly luciferase expression or activity, dose response, H4 neuroglioma cells, luminescence (AID 1990); assay type: functional, cell-based
[10] = tested on: INS1; test: beta cell apoptosis inhibitors, cytokine rescue, dose response, luminescence, retest (AID 449756); assay type: functional, cell-based; settings: Rattus norvegicus;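 further: cell death triggered by IL-1 beta plus TNF-alpha plus IFN-gamma mixture; protective hits raise ATP signal compared with cytokine alone wells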
[11] = tested on: A-375; test: A375 melanoma cell viability reduction, dose response, counter-screen for MITF modulator project, cherry-pick samples, set 2 (AID 540335); assay type: functional, cell-based; settings: Homo sapiens
[12] = molecular target: T7, Microphthalmia-associated transcription factor (Homo sapiens, UniProt O75030); test: TRPM1 promoter luciferase signal decrease, dose response, MITF inhibitor project, cell-based, SK-MEL-5, cherry-picked, set 3 (AID 493073); assay type: functional
T7 sequence (O75030 whole entry): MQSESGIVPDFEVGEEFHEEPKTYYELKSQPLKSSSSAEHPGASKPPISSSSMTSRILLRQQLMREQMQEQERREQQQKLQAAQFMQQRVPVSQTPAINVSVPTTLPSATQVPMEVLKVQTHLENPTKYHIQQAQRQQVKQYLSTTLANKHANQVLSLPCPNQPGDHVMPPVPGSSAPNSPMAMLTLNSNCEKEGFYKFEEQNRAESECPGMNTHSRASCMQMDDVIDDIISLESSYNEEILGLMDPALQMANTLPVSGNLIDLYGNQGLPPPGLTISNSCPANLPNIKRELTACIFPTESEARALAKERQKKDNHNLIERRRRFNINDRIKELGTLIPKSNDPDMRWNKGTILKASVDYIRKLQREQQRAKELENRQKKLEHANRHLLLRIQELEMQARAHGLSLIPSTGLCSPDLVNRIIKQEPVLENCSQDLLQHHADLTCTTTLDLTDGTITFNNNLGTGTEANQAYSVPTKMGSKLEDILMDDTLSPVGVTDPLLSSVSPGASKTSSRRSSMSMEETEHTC

[13] = Luminescence Cell-Based Dose Response HTS to Identify Inhibitors of 5'UTR Stem-Loop Driven Prion Protein mRNA Translation in H4 Neuroglioblastoma Cells. [Related pubchem assays: 1827 (Project Summary), 1813 (Primary HTS)]; assay type: functional
[14] = inhibitors of SNCA 5'UTR-driven reporter translation, confirmation, H4 neuroglioma cells, luminescence (AID 1988); assay type: functional, cell-based
[15] = Luminescence Cell-Based Dose Retest to Confirm Inhibitors of Cancer Stem Cells. [Related pubchem assays (depositor defined):AID2717, AID2721]; assay type: functional; settings: Homo sapiens

Chain of Cytochrome P450 2C9 (P11712 whole entry): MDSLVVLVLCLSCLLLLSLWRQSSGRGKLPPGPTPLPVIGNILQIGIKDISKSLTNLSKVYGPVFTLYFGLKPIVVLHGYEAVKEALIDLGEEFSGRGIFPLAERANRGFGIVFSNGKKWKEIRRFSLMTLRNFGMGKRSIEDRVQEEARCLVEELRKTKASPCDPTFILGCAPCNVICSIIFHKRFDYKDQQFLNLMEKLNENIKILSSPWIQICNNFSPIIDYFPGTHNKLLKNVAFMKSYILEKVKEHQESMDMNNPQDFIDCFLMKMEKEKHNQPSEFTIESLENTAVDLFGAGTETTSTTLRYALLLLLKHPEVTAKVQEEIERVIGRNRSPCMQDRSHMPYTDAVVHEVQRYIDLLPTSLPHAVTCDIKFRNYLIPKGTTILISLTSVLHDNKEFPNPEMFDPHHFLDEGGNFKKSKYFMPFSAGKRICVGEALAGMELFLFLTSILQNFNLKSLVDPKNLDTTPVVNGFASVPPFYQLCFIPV

SMILES	IC50 [1]	IC50 [2]	IC50 [4]	IC50 [5]	AC50 [11]	AC50 [12]	also measured
FC(F)(F)c1ccnc(Oc2ccc(C3=NCCS3)cc2)c1	11.5 µM (active)	5.09 µM (active)	2.36 µM (active)	4.94 µM (active)			IC50 [3]: 94.5 µM (inactive)
COc1cc(/C=N/NC(=O)c2cccnc2)ccc1OC(=O)c1ccc2c(c1)OCO2							AC50 [6]: 7.94 µM (inconclusive); EC50 [7]: > 99 µM (inactive); EC50 [8]: > 99 µM (inactive)
Cc1nnc2nc(SCC(=O)NCCC3=CCCCC3)n(-c3ccc(Br)cc3)c(N)c1-2					26.9 µM (active)	2.46 µM (active)	EC50 [9]: 9.9 µM (active); AC50 [10]: 5.09 µM (active); EC50 [13]: 15.4 µM (active); EC50 [14]: 8.54 µM (active)
O=C(Nc1ccc(Nc2ccncc2)cc1)c1ccc([N+](=O)[O-])cc1					33.1 µM (active)	7.22 µM (active)	
O=C(Nc1cc[n+](-c2nc3ccccc3nc2[N-]S(=O)(=O)c2ccccc2)cc1)c1cccs1							EC50 [7]: > 99 µM (inactive); EC50 [8]: > 99 µM (inactive)
CC(=O)c1c(C)oc2c1C(=O)c1ccccc1C2=O					41.3 µM (active)	6.68 µM (active)	AC50 [15]: 3.93 µM (active); AC50 [10]: 4.35 µM (active)
CCOC(=O)c1sc(-c2ccc(OC)cc2)cc1N	37.5 µM (active)	10.7 µM (active)	7.33 µM (active)	12.1 µM (active)			
CC(C)(C)NC(=O)COc1ccc(-c2ccccc2)cc1	24.6 µM (active)	70.7 µM (active)	12.3 µM (active)	52.6 µM (active)			
